Data reported in patent publication US10301280B2 (Plexxikon Inc., priority 2012, dated 2019).

molecular target: c-kit mutant D816V (Homo sapiens (Human), UniProt P10721, D816V/DEL694-753); assay: c-Kit mutant D816V biochemical assay (AlphaScreen); conditions: c-kit D816V biochemical inhibitory activity
Method in brief: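 His-tagged c-Kit D816V kinase domain (551-934, Δ694-753, E. coli) phosphorylating 30 nM biotin-(E4Y)10 at 10 μM ATP in HEPES pH 7.2 with Mg/Mn, 5% DMSO, 30 min at room temperature. PY20-acceptor/streptavidin-donor AlphaScreen detection after EDTA stop. IC50 from 8-point 1:3 titration.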

c-kit mutant D816V, sequence (P10721 other isoform, or with tags, fused parts or gaps D816V/del 694-753): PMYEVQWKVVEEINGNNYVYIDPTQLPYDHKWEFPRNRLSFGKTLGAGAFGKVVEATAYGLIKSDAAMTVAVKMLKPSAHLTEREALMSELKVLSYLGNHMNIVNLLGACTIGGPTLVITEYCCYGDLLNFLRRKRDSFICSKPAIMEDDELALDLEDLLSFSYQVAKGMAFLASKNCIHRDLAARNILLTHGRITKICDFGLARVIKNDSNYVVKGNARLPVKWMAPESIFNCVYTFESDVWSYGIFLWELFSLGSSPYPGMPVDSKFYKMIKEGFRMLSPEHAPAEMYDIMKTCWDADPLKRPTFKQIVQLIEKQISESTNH

SMILES	IC50
O=C(O)c1cccc(C(=O)Nc2cnc3[nH]c(-c4ccccc4)cc3c2)c1 [P-2291, 3-[(2-phenyl-1H-pyrrolo[2,3-b]pyridin-5-yl)carbamoyl]benzoic acid]	10 to 200 µM
Cc1n[nH]c(C(=O)Nc2cnc3[nH]c(-c4ccc(C(=O)O)c(F)c4)cc3c2)c1C [P-2292, 4-[5-[(3,4-dimethyl-1H-pyrazole-5-carbonyl)amino]-1H-pyrrolo[2,3-b]pyridin-2-yl]-2-fluoro-benzoic acid]	0.0001 to 1 µM
Cc1n[nH]c(C(=O)Nc2cnc3[nH]c(-c4cccc(CC(=O)O)c4)cc3c2)c1C [P-2293, 2-[3-[5-[(3,4-dimethyl-1H-pyrazole-5-carbonyl)amino]-1H-pyrrolo[2,3-b]pyridin-2-yl]phenyl]acetic acid]	0.0001 to 1 µM
Cc1n[nH]c(C(=O)Nc2cnc3[nH]c(-c4ccc(C5(C(=O)O)CC5)cc4)cc3c2)c1C [P-2294, 1-[4-[5-[(3,4-dimethyl-1H-pyrazole-5-carbonyl)amino]-1H-pyrrolo[2,3-b]pyridin-2-yl]phenyl]cyclopropanecarboxylic acid]	0.0001 to 1 µM
Cc1n[nH]c(C(=O)Nc2cnc3[nH]c(-c4ccc(CC(=O)O)cc4)cc3c2)c1C [P-2295, 2-[4-[5-[(3,4-dimethyl-1H-pyrazole-5-carbonyl)amino]-1H-pyrrolo[2,3-b]pyridin-2-yl]phenyl]acetic acid]	0.0001 to 1 µM
Cc1cc(-c2cc3cc(NC(=O)c4[nH]nc(C)c4C)cnc3[nH]2)ccc1C(=O)O [P-2296, 4-[5-[(3,4-dimethyl-1H-pyrazole-5-carbonyl)amino]-1H-pyrrolo[2,3-b]pyridin-2-yl]-2-methyl-benzoic acid]	0.0001 to 1 µM
Cc1n[nH]c(C(=O)Nc2cnc3[nH]c(-c4cccc(C(=O)O)c4C)cc3c2)c1C [P-2297, 3-[5-[(3,4-dimethyl-1H-pyrazole-5-carbonyl)amino]-1H-pyrrolo[2,3-b]pyridin-2-yl]-2-methyl-benzoic acid]	0.0001 to 1 µM
